Reference: ChEMBL document CHEMBL3826912 (ACS Med Chem Lett, 2016)
Blank lines part the entries; values can stand above or below the compound they belong to.

How the values were obtained:
[1] = in vivo; conditions: rat, po, 5 mg/kg
Description: AUC (0 to 24 hrs) in rat at 5 mg/kg, po

[2] = in vitro; conditions: human, MT2 cells
Description: Cytotoxicity against human MT2 cells

[3] = Dissociation constant, pKa of the compound; format: physicochemical
[4] = Half life in human liver microsomes at 0.5 uM in presence of NADPH by LC-MS/MS analysis; format: ADME
[5] = Half life in rat liver microsomes at 0.5 uM in presence of NADPH by LC-MS/MS analysis; format: ADME
[6] = Half life in dog liver microsomes at 0.5 uM in presence of NADPH by LC-MS/MS analysis; format: ADME, Canis lupus familiaris
[7] = Half life in monkey liver microsomes at 0.5 uM in presence of NADPH by LC-MS/MS analysis; format: ADME, Macaca mulatta; conditions: rhesus monkey
[8] = Oral bioavailability in mouse at 5 mg/kg by LC-MS/MS analysis; format: ADME, organism-based; conditions: in vivo
[9] = Oral bioavailability in rat at 5 mg/kg by LC-MS/MS analysis; format: ADME, organism-based; conditions: in vivo
[10] = Oral bioavailability in dog at 1.85 mg/kg by LC-MS/MS analysis; format: ADME, organism-based, Canis lupus familiaris; conditions: in vivo
[11] = Oral bioavailability in Cynomolgus monkey at 2 mg/kg by LC-MS/MS analysis; format: ADME, organism-based, Macaca fascicularis; conditions: in vivo
[12] = AUCtotal in mouse at 5 mg/kg administered via oral gavage by LC-MS/MS analysis; format: ADME, organism-based; parameters: dose 5 mg/kg, route oral, time AUCmax; conditions: in vivo
[13] = AUCtotal in rat at 5 mg/kg administered via oral gavage by LC-MS/MS analysis; format: ADME, organism-based; parameters: dose 5 mg/kg, time AUCmax, route oral; conditions: in vivo
[14] = AUCtotal in dog at 1.85 mg/kg administered via oral gavage by LC-MS/MS analysis; format: ADME, organism-based, Canis lupus familiaris; parameters: dose 1.85 mg/kg, time AUCmax, route oral; conditions: in vivo
[15] = AUCtotal in Cynomolgus monkey at 2 mg/kg administered via oral gavage by LC-MS/MS analysis; format: ADME, organism-based, Macaca fascicularis; parameters: dose 2 mg/kg, route oral, time AUCmax; conditions: in vivo
[16] = Drug level in mouse at 5 mg/kg administered via oral gavage after 24 hrs by LC-MS/MS analysis; format: ADME, organism-based; conditions: in vivo, read-out: Drug uptake
[17] = Drug level in rat at 5 mg/kg administered via oral gavage after 24 hrs by LC-MS/MS analysis; format: ADME, organism-based; conditions: in vivo, read-out: Drug uptake
[18] = Drug level in dog at 1.85 mg/kg administered via oral gavage after 24 hrs by LC-MS/MS analysis; format: ADME, organism-based, Canis lupus familiaris; conditions: in vivo, read-out: Drug uptake
[19] = Drug level in Cynomolgus monkey at 2 mg/kg administered via oral gavage after 24 hrs by LC-MS/MS analysis; format: ADME, organism-based, Macaca fascicularis; conditions: in vivo, read-out: Drug uptake
[20] = Half life in iv dosed mouse by LC-MS/MS analysis; format: ADME, organism-based; conditions: in vivo
[21] = Half life in iv dosed rat by LC-MS/MS analysis; format: ADME, organism-based; conditions: in vivo
[22] = Half life in iv dosed dog by LC-MS/MS analysis; format: ADME, organism-based, Canis lupus familiaris; conditions: in vivo
[23] = Half life in iv dosed Cynomolgus monkey by LC-MS/MS analysis; format: ADME, organism-based, Macaca fascicularis; conditions: in vivo
[24] = Protein binding in human serum by ultracentrifugation method; format: ADME; conditions: read-out: PB
[25] = system: Salmonella typhimurium; experiment: Mutagenicity in Salmonella typhimurium; format: toxicity, organism-based; conditions: salmonella enterica subsp. enterica serovar typhimurium
[26] = Inhibition of CYP450 in human microsomes; format: ADME

Compound: C=C(C)[C@@H]1CC[C@]2(C(=O)O)CC[C@]3(C)[C@H](CC[C@@H]4[C@@]5(C)CC=C(c6ccc(C(=O)O)cc6)C(C)(C)[C@@H]5CC[C@]43C)[C@@H]12
- AUC(0-t) at 24 h [1]: 5.72 µM·h
- CC50 [2]: 27.2 nM

- AUC(0-t) at 24 h [1]: 1.62 µM·h
Compound: C=C(C)[C@@H]1CC[C@]2(C(=O)NCCN(C)C)CC[C@]3(C)[C@H](CC[C@@H]4[C@@]5(C)CC=C(c6ccc(C(=O)O)cc6)C(C)(C)[C@@H]5CC[C@]43C)[C@@H]12
- CC50 [2]: 2.61 nM

Compound: C=C(C)[C@@H]1CC[C@]2(CNCCCN3CCS(=O)(=O)CC3)CC[C@]3(C)[C@H](CC[C@@H]4[C@@]5(C)CC=C(c6ccc(C(=O)O)cc6)C(C)(C)[C@@H]5CC[C@]43C)[C@@H]12
- pKa [3]: 4.5
- AUC(0-t) at 24 h [1]: 1.71 µM·h
- CC50 [2]: 3.5 nM

Compound: C=C(C)[C@@H]1CC[C@]2(CNCCN(C)C)CC[C@]3(C)[C@H](CC[C@@H]4[C@@]5(C)CC=C(c6ccc(C(=O)O)cc6)C(C)(C)[C@@H]5CC[C@]43C)[C@@H]12
- AUC(0-t) at 24 h [1]: 0.153 µM·h
- CC50 [2]: 1.24 nM

Compound: C=C(C)[C@@H]1CC[C@]2(CNC(C)C)CC[C@]3(C)[C@H](CC[C@@H]4[C@@]5(C)CC=C(c6ccc(C(=O)O)cc6)C(C)(C)[C@@H]5CC[C@]43C)[C@@H]12
- CC50 [2]: 2.36 nM

Compound: C=C(C)[C@@H]1CC[C@]2(CNCCO)CC[C@]3(C)[C@H](CC[C@@H]4[C@@]5(C)CC=C(c6ccc(C(=O)O)cc6)C(C)(C)[C@@H]5CC[C@]43C)[C@@H]12
- AUC(0-t) at 24 h [1]: 4.98 µM·h
- CC50 [2]: 8.48 nM

Compound: C=C(C)[C@@H]1CC[C@]2(CNCCCN3CCCC3=O)CC[C@]3(C)[C@H](CC[C@@H]4[C@@]5(C)CC=C(c6ccc(C(=O)O)cc6)C(C)(C)[C@@H]5CC[C@]43C)[C@@H]12
- AUC(0-t) at 24 h [1]: 1.04 µM·h
- CC50 [2]: 5.8 nM

Compound: C=C(C)[C@@H]1CC[C@]2(NCCN3CCS(=O)(=O)CC3)CC[C@]3(C)[C@H](CC[C@@H]4[C@@]5(C)CC=C(c6ccc(C(=O)O)cc6)C(C)(C)[C@@H]5CC[C@]43C)[C@@H]12 [BMS-955176]
- half-life at 0.5 µM [4]: > 2 h
- half-life at 0.5 µM [5]: > 2 h
- half-life at 0.5 µM [6]: > 2 h
- half-life at 0.5 µM [7]: 0.2 h
- bioavailability [8]: 27%
- bioavailability [9]: 26%
- bioavailability [10]: 8.5%
- bioavailability [11]: 3.9%
- AUC [12]: 28.9 µM·h
- AUC [13]: 14.2 µM·h
- AUC [14]: 29.4 µM·h
- AUC [15]: 0.995 µM·h
- concentration at 24 h [16]: 256 nM
- concentration at 24 h [17]: 128 nM
- concentration at 24 h [18]: 559 nM
- concentration at 24 h [19]: 17.4 nM
- half-life [20]: 8.9 h
- half-life [21]: 6.6 h
- half-life [22]: 31.7 h
- half-life [23]: 8.6 h
- fraction unbound [24]: < 0.16
- Activity [25]: Non-toxic
- inhibition (INH) [26]: Not Active
- AUC(0-t) at 24 h [1]: 4.13 µM·h
- CC50 [2]: 9.2 nM
